Reference: the NIST ThermoML archive (doi:10.1016/j.fluid.2013.01.025)

Experiments:
[1] = 101 kPa, Liquid, Vibrating tube method
[2] = xn = mol fraction of the nth substance listed; settings: 101 kPa, Liquid, Vibrating tube method

OCCO [1,2-ethanediol]
[1]
Settings | mass density [kg/m3]
278.15 K | 1123.8
323.15 K | 1092.14

OCCO [1,2-ethanediol] + O
mass density [kg/m3], [2]
Settings | 278.15 K | 288.15 K | 298.15 K | 308.15 K | 323.15 K
x1 = 0.02277 | 1010.24 | 1008.82 | 1006.33 | 1002.99 | 996.6
x1 = 0.05488 | 1023.85 | 1021.56 | 1018.45 | 1014.58 | 1007.61
x1 = 0.07829 | 1032.87 | 1030.01 | 1026.44 | 1022.21 | 1014.78
x1 = 0.1012 | 1040.89 | 1037.48 | 1033.52 | 1028.99 | 1021.16
x1 = 0.158 | 1057.7 | 1053.26 | 1048.42 | 1043.17 | 1034.52
x1 = 0.2 | 1067.88 | 1062.86 | 1057.55 | 1051.92 | 1042.75
x1 = 0.299 | 1085.43 | 1079.59 | 1073.54 | 1067.25 | 1057.39
x1 = 0.3917 | 1096.56 | 1090.28 | 1083.85 | 1077.24 | 1067.02
x1 = 0.5006 | 1105.57 | 1098.99 | 1092.32 | 1085.51 | 1075.02
x1 = 0.6041 | 1111.55 | 1104.81 | 1098 | 1091.09 | 1080.49
x1 = 0.7063 | 1115.93 | 1109.12 | 1102.24 | 1095.28 | 1084.61
x1 = 0.8049 | 1119.14 | 1112.26 | 1105.34 | 1098.34 | 1087.65
x1 = 0.9034 | 1121.73 | 1114.79 | 1107.84 | 1100.82 | 1090.14
x1 = 0.9535 | 1122.81 | 1115.88 | 1108.92 | 1101.89 | 1091.19
x1 = 0.9826 | 1123.42 | 1116.49 | – | 1102.48 | 1091.78
x1 = 1 | 1123.8 | – | – | – | 1092.14

O [water] + OCCO
[2], x2 = 0
Settings | mass density [kg/m3]
278.15 K | 999.96
323.15 K | 988.03
